The text below walks through data of EP0422134B1, “5-HT SELECTIVE AGENTS” (ABBOTT LABORATORIES, priority 1988, dated 1990).

Experiment [1] has as its system spontaneously hypertensive (SH) rat. In words: Blood pressure in spontaneously hypertensive rats (tail cuff), oral dosing. The format is in vivo. Particulars: % change in blood pressure.
Protocol: In another study, a group of spontaneously hypertensive male rats were trained to be restrained in a wire mesh cylinder in a warming box, at least two training cycles being conducted before testing. The rats were warmed for about one-hour prior to blood pressure measurement, the warming box being maintained at a constant temperature of 36°C. An occluding cuff attached to a programmed sphygmomanometer was placed near the base of the tail of each rat and the pressure of the cuff was increased automatically from 0 to 250 millimeters of mercury at a rate of 10 mm Hg pressure per second. The total time for each cycle of inflation and deflation of the cuff was 50 seconds and the interval between cycles was one minute A photocell, placed distally to the cuff, recorded the pulses due to the forward motion of blood flow with each heart beat. As the pressure in the cuff increased, the pulse disappeared completely at the point where the cuff pressure equalled and exceeded the arterial blood pressure. The pulse reappeared during deflation at approximately the same pressure. Five interference free signals were recorded for each rat. Rats with a blood pressure of 180 mm Hg or more during the control period were used in the study.
Blood pressure and heart rate readings were recorded on a Model VII Grass polygraph at various intervals after administration of the test compound. […] For the in vivo test data, SHR refers to spontaneously hypertensive rats, dosed in milligrams per kilogram (mpk), with the data being expressed in the Table in +% changes at a particular dosage range.
In another experiment the target is 5-HT1. As to the kind of experiment: Radioligand binding, tritiated 5-HT, rat frontal cortex homogenate (total 5-HT1). To be noted: displacement of tritiated 5-HT. The procedure: Male Sprague-Dawley rats (150-200 g) were sacrificed and the brains were rapidly removed and placed on ice. The frontal cortext, including the portion immediately above the striatum and part of the parietal cortex were dissected. Tissues from 6-10 rats were pooled and homogenized in at least 40 volumes of tris-HCI buffer (0.05 M, pH 7.4) using a Brinkman Polytron (setting 5 for 20 seconds). This homogenate was centrifuged (48,000 G for 10 minutes), the pellet resuspended, and the process repeated three more times. Between the second and third washes, the tissue homogenate was incubated for 10 minutes at 37°C. The final pellet was resuspended in 100 volumes of TRIS buffer for use in the binding assay.
Radioligand binding affinity for subtypes of the serotonin receptor was determined by the method of Pedigo, Yamamura, and Nelson, op. cit. Tissue homogenate (0.5 mL) from rat frontal cortex, together with various concentrations of tritiated 5-HT and test compounds were added to glass tubes containing modified tris-HCI buffer to obtain, in each case, a final volume of 2 mL and having the following compositions: 5.7 mM ascorbate, 10 micromolar pargyline, 4mM CaCl2, 50 mM TRIS buffer; pH 7.4 at 37°C.
Each mixture was incubated for 15 minutes at 37°C and then vacuum filtered through Whatman GF/B filters followed by three 5 mL washes with cold TRIS buffer. Radioactivity was extracted overnight in 3 mL of scintillation liquid and measured by liquid scintillation spectrometry (50% efficiency).
Binding parameters for saturation and drug displacement studies were calculated by Scatchard analysis and from Hill plots, respectively.

Where a name gives a salt, the structure may show the parent alone.

What is called IC50 is the concentration that inhibits the measured activity by half. The low end stands for greater potency, the high end for weaker potency.

For the compound `COc1cccc2c1[C@H]1CCN(CCCCN3C(=O)c4ccccc4S3(=O)=O)C[C@@H]1C2` (relative stereo) [Example 57, trans-2(4-(2-(1,2-benzisothiazolin-3-one-1,1-dioxyde))butyl)-5-methoxy-2,3,4,4a,9,9a-hexahydro-1H-indeno[2,1-c]pyridine hydrochloride], in experiment [1] (30 mg/kg p.o.), the “In Vivo Data SHR (mpk, p.o. dose)” value was -17% at 30 mg/kg. This compound also came in with a concentration for half-maximal inhibition (IC50) on 5-HT1 of 26 nM.
The like results for `COc1cccc2c1C1CN(CCCCN3C(=O)CC(C)(C)CC3=O)CC1C2` (centres unmarked) [Example 23, 2-(4-(3,3-dimethyl)glutarimidyl)butyl-4-methoxy-1,2,3,3a,8,8a-hexahydroindeno-[1,2-c]pyrrole hydrochloride] were, in that order, -12% at 30 mg/kg and 1730 nM.
The matching figures for `O=C1CC2(CCCC2)CC(=O)N1CCCCN1CC2Cc3ccc(Cl)c(O)c3C2C1` (centres unmarked) [Example 52, 2-(4-(3,3-Tetramethylene)glutarimidyl)butyl-5-chloro-4-hydroxy-1,2,3,3a,8,8a-hexahydroindeno[1,2-c]-pyrrole hydrobromide]: -23% at 30 mg/kg and 1840 nM.
Regarding `COc1cccc2c1C1CN(CCCN3C(=O)CC4(CCCC4)CC3=O)CC1C2` (centres unmarked) [Example 26, 2-(3-(3,3-tetramethylene)glutarimidyl)propyl-4-methoxy-1,2,3,3a,8,8a-hexahydroindeno[1,2-c]pyrrole hydrochloride], the “In Vivo Data SHR (mpk, p.o. dose)” value in experiment [1] (30 mg/kg p.o.) was -23% at 30 mg/kg. This compound also came in with an IC50 at 5-HT1 of 3300 nM.
`Br.O=C(NCCN1CC2Cc3cccc(O)c3C2C1)c1ccc(F)cc1` (centres unmarked) [Example 19, 4-Hydroxy-2-(2-(4-fluorobenzamido)ethyl)-1,2,3,3a,8,8a-hexahydroindeno[1,2-c]pyrrole hydrobromide]: the “In Vivo Data SHR (mpk, p.o. dose)” value in experiment [1] (30 mg/kg p.o.) was -9% at 30 mg/kg. This compound gave an IC50 at 5-HT1 of 262 nM.
On to `COc1cccc2c1C1CN(C[C@H]3COc4ccccc4O3)CC1C2` (stereo partly drawn) [Example 31, 2S-(1,4-benzodioxanyl-2-methyl)-4-methoxy-1,2,3,3a,8,8a-hexahydroindeno[1,2-c]pyrrole hydrochloride], for which the IC50 at 5-HT1 came out at 457 nM.
Regarding `O=C1c2ccccc2S(=O)(=O)N1CCCCN1CC2Cc3cccc(O)c3C2C1` (centres unmarked) [Example 22, 4-Hydroxy-2-(4-(2-(1.2-benzisothiazolin-3-one-1,1-dioxide))butyl)-1,2,3,3a,8,8a-hexahydroindeno-[1,2-c]pyrrole hydrochloride], in experiment [1] (30 mg/kg p.o.), the “In Vivo Data SHR (mpk, p.o. dose)” value is -16% at 30 mg/kg. In addition, the IC50 at 5-HT1 came out at 1090 nM.
With `COc1cccc2c1C1CN(CCCCN3C(=O)c4ccccc4S3(=O)=O)CC1C2` (centres unmarked) [Example 21, 4-Methoxy-2-(4-(2-(1,2-benzisothiazolin-3-one1,1-dioxide))butyl)1,2,3,3a,8,8a-hexahydroindeno-[1,2-c]pyrrole hydrochloride], the “In Vivo Data SHR (mpk, p.o. dose)” value was -16% in experiment [1] (10 mg/kg p.o.) and -28% in experiment [1] (30 mg/kg p.o.). At 5-HT1, this compound had an IC50 of 438 nM.
Take `COc1cccc2c1C1CN(C/C=C\CN3C(=O)CC4(CCCC4)CC3=O)CC1C2` (stereo not drawn) [Example 29, 2-(4-(3,3-tetramethylene)glutarimidyl)-cis-but-2-enyl-4-methoxy-1,2,3,3a,8,8a-hexahydroindeno [1,2-c] pyrrole hydrochloride]: the “In Vivo Data SHR (mpk, p.o. dose)” value in experiment [1] (30 mg/kg p.o.) is -19% at 30 mg/kg. For the same compound, the IC50 on 5-HT1 stood at 3630 nM.
Consider `COc1cccc2c1C1CN(CCCCN3C(=O)CC4(CCCC4)CC3=O)CC1C2` (centres unmarked) [Example 7, 2-(4-(3,3-tetramethylene)glutarimidyl)butyl-4-methoxy-1,2,3,3a,8,8a-hexahydoindeno[1,2-c]pyrrole hydrochloride], for which the “In Vivo Data SHR (mpk, p.o. dose)” value in experiment [1] (10 mg/kg p.o.) was -14%; in experiment [1] (30 mg/kg p.o.), -28%. At 5-HT1, this compound displayed an IC50 of 218 nM.
Consider `COc1cccc2c1C1CCN(CCNC(=O)c3ccc(F)cc3)CC1C2` (stereo not drawn) [Example 58, trans-2-(2-(4-fluorobenzamido)ethyl)-5-methoxy-2,3,4,4a,9.9a-hexahydro-1H-indeno[2,1-c]pyridine hydrochloride], for which, in experiment [1] (10 mg/kg p.o.), the “In Vivo Data SHR (mpk, p.o. dose)” value was -18% at 10 mg/kg. On 5-HT1, this compound showed an IC50 of 43 nM.
Turning to `COc1cccc2c1C1CCN(CCCN3C(=O)CC4(CCCC4)CC3=O)CC1C2` (stereo not drawn) [Example 43, cis-2-(3-(3,3-tetramethylene)glutarimidyl)propyl-5-methoxy-2,3,4,4a,9,9a-hexahydro-1H-indeno[2,1-c] pyridine hydrochloride], the “In Vivo Data SHR (mpk, p.o. dose)” value in experiment [1] (30 mg/kg p.o.) is on record as -17.5% at 30 mg/kg. In addition, the IC50 on 5-HT1 stood at 3120 nM.
With `COc1c(Cl)ccc2c1C1CN(CCCCN3C(=O)CC4(CCCC4)CC3=O)CC1C2` (centres unmarked) [Example 8, 2-(4-(3,3-tetramethylene)glutarimidyl)butyl-5-chroro-4-methoxy-1,2,3,3a,8,8a-hexahydroindeno[1,2-c] pyrrole hydrochloride], the “In Vivo Data SHR (mpk, p.o. dose)” value in experiment [1] (30 mg/kg p.o.) is -37% at 30 mg/kg. At 5-HT1, this compound showed an IC50 of 714 nM.
On to `COc1cccc2c1C1CN(CCCCN3C(=O)C4C5C=CC(C6C=CC65)C4C3=O)CC1C2` (centres unmarked) [Example 54, 4-Methoxy-2-(4-(3a,4,4a,6a,7,7a-hexahydro-4,7-etheno-1H-cyclobut[flisoindol-1,3-dionyl)-butyl)-1,2,3,3a,8,8a-hexahydroindeno-[1,2-c]pyrrole hydrochloride], for which the concentration for half-maximal inhibition (IC50) on 5-HT1 came to 283 nM.
Compound `COc1cccc2c1C1CN(CCCCCN3C(=O)CC4(CCCC4)CC3=O)CC1C2` (centres unmarked) [Example 28, 2-(5-(3,3-tetramethylene)glutarimidyl)pentyl-4-methoxy-1,2,3,3a,8,8a-hexahydroindeno[1,2-c]pyrrole hydrochloride] registered an IC50 on 5-HT1 of 722 nM.
For `COc1cccc2c1C1CCN(CCCCN3C(=O)CC4(CCCC4)CC3=O)CC1C2` (centres unmarked) [Example 44, hydrochloride], the IC50 at 5-HT1 was 505 nM.
`COc1cccc2c1[C@H]1CCN(CCCCN3C(=O)CC4(CCCC4)CC3=O)C[C@@H]1C2` (relative stereo) [Example 51, trans-2-(4-(3,3-tetramethylene)glutarimidyl)butyl-5-methoxy-2,3,4,4a,9,9a-hexahydro-1H-indeno [2,1-c] pyridine hydrochloride]: the “In Vivo Data SHR (mpk, p.o. dose)” value in experiment [1] (30 mg/kg p.o.) was -36% at 30 mg/kg. At 5-HT1, this compound gave an IC50 of 60 nM.
On 5-HT1, `O=C1CC2(CCCC2)CC(=O)N1CCCCN1CC2Cc3cccc(O)c3C2C1` (centres unmarked) [Example 20, 2-(4-(3,3-tetramethylene)glutarimidyl)butyl-4-hydroxy-1,2,3,3a,8,8a-hexahydroindeno[1,2-c]pyrrole hydrobromide] displayed an IC50 of 1840 nM.
At 5-HT1, `COc1cccc2c1C1CN(CCCCN3C(=O)c4ccccc4C3=O)CC1C2` (centres unmarked) [Example 24, 4-Methoxy-2-(4-(2-phthalimido)butyl)-1,2,3,3a,8,8a-hexahydroindeno[1,2-c]pyrrole hydrochloride] displayed an IC50 of 404 nM.
As to `COc1cccc2c1C1CN(C/C=C/CN3C(=O)CC4(CCCC4)CC3=O)CC1C2` (stereo not drawn) [Example 30, 2-(4-(3,3-tetramethylene)glutarimidyl)-trans-but-2-enyl-4-methoxy-1,2,3,3a,8,8a-hexahydroindeno [1,2-c]pyrrole hydrochloride], the “In Vivo Data SHR (mpk, p.o. dose)” value in experiment [1] (30 mg/kg p.o.) is -11% at 30 mg/kg. At 5-HT1, this compound yielded an IC50 of 533 nM.
`COc1cccc2c1C1CN(C[C@@H]3COc4ccccc4O3)CC1C2` (stereo partly drawn) [Example 32, 2R-(1,4-benzodioxanyl-2-methyl)-4-methoxy-1,2,3,3a,8,8a-hexahydroindeno[1,2-c]pyrrole hydrochloride]: the IC50 on 5-HT1 turned out to be 992 nM.
On 5-HT1, `COc1cccc2c1[C@H]1CCN(CCCN3C(=O)CC4(CCCC4)CC3=O)C[C@@H]1C2` (relative stereo) [Example 50, trans-2-(3-(3,3-tetramethylene)glutarimidyl)propyl-5-methoxy-2,3,4,4a,9,9a-hexahydro-1 H-indeno [2,1-c]pyridine hydrochloride] showed a 50% inhibitory concentration (IC50) of 279 nM.
`O=C1CC2(CCCC2)CC(=O)N1CCCN1CC2Cc3cccc(O)c3C2C1` (centres unmarked) [Example 27, 2-(3-(3,3-tetramethylene)glutarimidyl)propyl-4-hydroxy-1,2,3,3a,8,8a-hexahydroindeno[1,2-c]pyrrole hydrobromide]: at 5-HT1, the IC50 was 3320 nM.
For `COc1cccc2c1[C@H]1CCN(CCCN3C(=O)c4ccccc4S3(=O)=O)C[C@@H]1C2` (relative stereo) [Example 56, trans-2(3-(2-(1,2-benzisothiazolin-3-one-1,1-dioxyde))propyl)-5-methoxy-2,3,4,4a,9,9a-hexahydro-1 H-indeno[2,1-c]pyridine hydrochloride], the “In Vivo Data SHR (mpk, p.o. dose)” value in experiment [1] (10 mg/kg p.o.) is -18% at 10 mg/kg. The compound also returned an IC50 at 5-HT1 of 22 nM.
